Measurements published in patent publication US11926621B1, “N′-(2-(5-(4-chlorophenyl)-1,3,4-oxadiazol-2-ylthio)acetoxy)benzo[d][1,3]dioxole-5-carboximidamide as an antimicrobial compound” (KING FAISAL UNIVERSITY, priority 2023, dated 2024).

Legend:
Format in all cases: cell-based
Bacillus cereus = experiment: Agar plate disc-diffusion, antibacterial inhibition zone; details: nutrient agar, 37° C., 48 h
Method: The agar plate disc-diffusion method was applied. […] The discs were then placed onto the surface of agar plates (nutrient agar for bacteria and Sabouraud's dextrose agar for fungi) seeded with the test organism. Each plate contained 15 mL of the agar medium, previously seeded with 0.2 mL of the broth culture of each organism pregrown for 18 hours. The plates were incubated at 37° C. for 48 h, and 72 h for fungi. The inhibition zones were measured in mm. Discs impregnated with DMSO were used as a control, and its inhibition zone was subtracted from the tested compound actual inhibition zone.
(§1) The results of the antimicrobial testing can be observed in Tables 1 and 2, below, using ciprofloxacin as a reference.

Aspergillus flavus = experiment: Agar plate disc-diffusion, antifungal inhibition zone; details: Sabouraud's dextrose agar, 72 h
Method: (§2) The agar plate disc-diffusion method was applied. Sterilized filter papers (6 mm in diameter) were wetted with 10 μL of a solution of N′-(2-(5-(4-chlorophenyl)-1,3,4-oxadiazol-2-ylthio)acetoxy)benzo[d][1,3]dioxole-5-carboximidamide (3) to be tested, containing 10 mg/mL in DMSO, and the discs were allowed to air dry. The discs were then placed onto the surface of agar plates (nutrient agar for bacteria and Sabouraud's dextrose agar for fungi) seeded with the test organism. Each plate contained 15 mL of the agar medium, previously seeded with 0.2 mL of the broth culture of each organism pregrown for 18 hours. The plates were incubated at 37° C. for 48 h, and 72 h for fungi. The inhibition zones were measured in mm. Discs impregnated with DMSO were used as a control, and its inhibition zone was subtracted from the tested compound actual inhibition zone.
as §1

[1] = test system: Chrysosporium keratinophilum; experiment: as above; details: Sabouraud's dextrose agar, 72 h
Method: as §2, with “[…],” for “containing 10 mg/mL in DMSO,”
as §1

Pseudomonas aeruginosa = experiment: Agar plate disc-diffusion, antibacterial inhibition zone; details: nutrient agar, 37° C., 48 h
Method: as §2, with “[…],” for “containing 10 mg/mL in DMSO,”
as §1

Escherichia coli = experiment: as above; details: nutrient agar, 37° C., 48 h
Method: as §2, with “[…],” for “containing 10 mg/mL in DMSO,”
as §1

Staphylococcus aureus = experiment: as above; details: nutrient agar, 37° C., 48 h
Method: as §2, with “[…],” for “containing 10 mg/mL in DMSO,”
as §1

[2] = A = concentration of comp. = 10,000 μL
[3] = B = concentration of comp. = 30.000 μL
[4] = C = concentration of comp. = 50,000 μL

N/C(=N\OC(=O)CSc1nnc(-c2ccc(Cl)cc2)o1)c1ccc2c(c1)OCO2 [Compound 3, N′-(2-(5-(4-chlorophenyl)-1,3,4-oxadiazol-2-ylthio)acetoxy)benzo[d][1,3]dioxole-5-carboximidamide]
inhibition zone, Bacillus Cereus, A (Bacillus cereus; [2]): 23 mm | inhibition zone, Bacillus Cereus, B (Bacillus cereus; [3]): 28 mm | inhibition zone, Bacillus Cereus, C (Bacillus cereus; [4]): 37 mm | inhibition zone, Aspergillus flavus, A (Aspergillus flavus; [2]): 25 mm | inhibition zone, Aspergillus flavus, B (Aspergillus flavus; [3]): 28 mm | inhibition zone, Aspergillus flavus, C (Aspergillus flavus; [4]): 38 mm | inhibition zone, Chrysosporium keratinophilum, A [1, 2]: 24 mm | inhibition zone, Chrysosporium keratinophilum, B [1, 3]: 29 mm | inhibition zone, Chrysosporium keratinophilum, C [1, 4]: 45 mm | inhibition zone, Pseudomonas aeruginosa, A (Pseudomonas aeruginosa; [2]): 22 mm | inhibition zone, Pseudomonas aeruginosa, B (Pseudomonas aeruginosa; [3]): 25 mm | inhibition zone, Pseudomonas aeruginosa, C (Pseudomonas aeruginosa; [4]): 32 mm | inhibition zone, Escherichia coli, A (Escherichia coli; [2]): 25 mm | inhibition zone, Escherichia coli, B (Escherichia coli; [3]): 30 mm | inhibition zone, Escherichia coli, C (Escherichia coli; [4]): 43 mm | inhibition zone, Staphylococcus aureus, A (Staphylococcus aureus; [2]): 25 mm | inhibition zone, Staphylococcus aureus, B (Staphylococcus aureus; [3]): 31 mm | inhibition zone, Staphylococcus aureus, C (Staphylococcus aureus; [4]): 40 mm
